Tests used:
CT26 colon carcinoma = experiment: In vivo tumor efficacy, CT26 model, crizotinib or alectinib with anti-PD-L1 (Example 3); set-up: species or system Balb/c mice; conditions: alectinib study, alectinib 60 mg/kg, anti-mPDL1 10 mg/kg
Text: CT26 colon carcinoma cell line has published mutanome and transcriptome data, with no known ALK fusion events or oncogenic mutations. Castle et al, BMC Genomics, 15:190 (13 Mar. 2014); Castle et al, CAN 11:3722 (11 Jan. 2012).
Six- to eight-week old female Balb/c or C57BL/6 mice were purchased from The Jackson Laboratories.
CT26 cell lines, anti-PD-L1 antibody and Rat IgG isotypes (IgG2a and IgG2b) were purchased from BioXCell (clones 2A3 and LTF2, respectively) and prepared as described in Example 2 above. […]

activated T cells = experiment: T cell viability, Cell-Titer Glo Luminescent Cell Viability Assay; format: cell-based, human; conditions: log[Agonist]
Protocol: Briefly, human cells were isolated from healthy donors' PBMCs by using EasySep™ Human T Cell Enrichment Kit (Stemcell Technologies) according to manufacturer's instruction. […] Cells were cultured in RPMI 1640 medium supplemented with 10% FCS and 100 I.U./mL penicillin/streptomycin in humidified incubator at 37° C. with 5% CO2. […] Culture supernatants were collected on Day 2 or 3 for cytokine analysis. Plates were then harvested on DNA specific filter papers (Perkin Elmer) using Harvester96 (Tomtec Life Sciences). The radiolabeled filters were covered with beta scintillation liquid (Perkin Elmer) and read in Microbeta® counter plates (Perkin Elmer). ^3H Thymidine was pulsed on Day 2 for T cell proliferation assay. The impact by sunitinib and axitinib on T cell proliferation and viability were repeated as previously published (FIGS. 1A and 1B).
Cell viability was measured by Cell-Titer Glo Luminescent Cell Viability Assay® (Promega, Madison). […] Table 4 below provides the Luciferase RLU values reflecting T cell viability for each of the respective inhibitors.

[1] = tested on: CD3/CD28-stimulated effector cells (T cells from healthy donors' PBMCs); experiment: T cell proliferation assay (3H thymidine incorporation), CD3/CD28-stimulated T cells; format: cell-based, human; conditions: log[Agonist]
Text: Briefly, human cells were isolated from healthy donors' PBMCs by using EasySep™ Human T Cell Enrichment Kit (Stemcell Technologies) according to manufacturer's instruction. […] Culture supernatants were collected on Day 2 or 3 for cytokine analysis. Plates were then harvested on DNA specific filter papers (Perkin Elmer) using Harvester96 (Tomtec Life Sciences). The radiolabeled filters were covered with beta scintillation liquid (Perkin Elmer) and read in Microbeta® counter plates (Perkin Elmer). ^3H Thymidine was pulsed on Day 2 for T cell proliferation assay.

MC38 colon carcinoma = experiment: In vivo tumor efficacy, MC38 model, crizotinib with avelumab (Example 5); set-up: species or system C57BL/6 mice; conditions: for Tumor Volume (Mean ± SEM): avelumab 20 mg/kg i.p., crizotinib 40 mg/kg orally QD
Protocol: Avelumab is a fully human IgG1 antibody that recognizes both human and mouse PD-L1. […] Six- to eight-week old female C57BL/6 mice were purchased from The Jackson Laboratories (Farmington, Conn.). Mice were maintained and all animal experiments were conducted according to the protocols approved by the Institutional Animal Care and Use Committee of Rinat, South San Francisco and Worldwide Research and Development (WRD), La Jolla, Pfizer Inc. MC38 colon carcinoma cell line was kindly provided by Dr. Antoni Ribas at UCLA, California. Cells were cultured in DMEM medium supplemented with 10% fetal bovine serum, and 100 I.U./mL penicillin/streptomycin at 37° C. in an atmosphere of 5% CO2 in air, and IMPACT-tested for pathogens at Research Animal Diagnostic Laboratory (RADIL) (Columbia, Mo.). Pathogen-free cells growing in an exponential growth phase were harvested and used for tumor inoculation. […] Human IgG1 was prepared in-house (Lot No. NB123249p192CA110124). […] Body weight was recorded weekly. […] Mice were monitored for tumor growth and body weight changes.

CCc1cc2c(cc1N1CCC(N3CCOCC3)CC1)C(C)(C)c1[nH]c3cc(C#N)ccc3c1C2=O [Alectinib, alectinib]
Tumor Volume (Mean ± SEM) (CT26 colon carcinoma; Day 7): 119.1 ± 12.5 mm^3
Tumor Volume (Mean ± SEM) (CT26 colon carcinoma; Day 14): 293.4 ± 54.2 mm^3
Tumor Volume (Mean ± SEM) (CT26 colon carcinoma; Day 19): 546.8 ± 98.0 mm^3
Tumor Volume (Mean ± SEM) (CT26 colon carcinoma; Day 24): 1114.2 ± 217.0 mm^3
Tumor Volume (Mean ± SEM) (CT26 colon carcinoma; Day 27): 1892.5 ± 283.1 mm^3

CCN(CC)CCNC(=O)c1c(C)[nH]c(/C=C2\C(=O)Nc3ccc(F)cc32)c1C [Sunitinib, sunitinib]
Luciferase RLU (T cell viability) (activated T cells; μM: 0): 98.24 ± 2.169 RLU
Luciferase RLU (T cell viability) (activated T cells; μM: 1): 13.95 ± 7.493 RLU
Luciferase RLU (T cell viability) (activated T cells; μM: 2): 0.8502 ± 0.2596 RLU
Luciferase RLU (T cell viability) (activated T cells; μM: 3): 1.827 RLU
Luciferase RLU (T cell viability) (activated T cells; μM: −1): 91.57 ± 2.195 RLU
Luciferase RLU (T cell viability) (activated T cells; μM: −2): 98.04 ± 2.634 RLU
Luciferase RLU (T cell viability) (activated T cells; μM: −3): 96.57 ± 1.711 RLU
Thymidine incorporation(CPM) ([1]; μM: 0): 493570.3 ± 59347.45 CPM
Thymidine incorporation(CPM) ([1]; μM: 1): 332 ± 105.9733 CPM
Thymidine incorporation(CPM) ([1]; μM: 2): 117.3333 ± 16.23 CPM
Thymidine incorporation(CPM) ([1]; μM: 3): 171 ± 25 CPM
Thymidine incorporation(CPM) ([1]; μM: −1): 468847.7 ± 39073.88 CPM
Thymidine incorporation(CPM) ([1]; μM: −2): 444679.3 ± 13911.18 CPM
Thymidine incorporation(CPM) ([1]; μM: −3): 469071 ± 48070.7 CPM

B1: Avelumab: fully human IgG1 antibody that recognizes both human and mouse PD-L1 (antibody, V domains shown)
VH: EVQLLESGGGLVQPGGSLRLSCAASGFTFSSYIMWVRQAPGKGLEWVSSIYPSGGITFYADKGRFTISRDNSKNTLYLQMNSLRAEDTAVYYCARIKLGTVTTVDYWGQGTLVTVSS
VL: QSALTQPASVSGSPGQSITISCTGTSSDVGGYNYVSWYQQHPGKAPKLMIYDVSNRPSGVSNRFSGSKSGNTASLTISGLQAEDEADYYCSSYTSSSTRVFGTGTKVTVL
Tumor Volume (Mean ± SEM) (MC38 colon carcinoma; Day 7): 78.3 ± 5.4 mm^3
Tumor Volume (Mean ± SEM) (MC38 colon carcinoma; Day 14): 145.5 ± 11.0 mm^3
Tumor Volume (Mean ± SEM) (MC38 colon carcinoma; Day 19): 307.1 ± 25.5 mm^3
Tumor Volume (Mean ± SEM) (MC38 colon carcinoma; Day 24): 535.0 ± 62.0 mm^3
Tumor Volume (Mean ± SEM) (MC38 colon carcinoma; Day 27): 817.7 ± 87.2 mm^3
TGI (MC38 colon carcinoma; compared with the isotype control antibody treated group, avelumab 20 mg/kg, crizotinib 40 mg/kg): 49.7%

Source: US20180282415A1, “Combination of a PD-1 Axis Binding Antagonist and an ALK Inhibitor for Treating ALK-Negative Cancer” (Merck Patent GmbH, priority 2015, published 2018)
